Reference: patent US9388160B2, “Quinazoline derivatives as kinases inhibitors and methods of use thereof” (TELIGENE LTD., priority 2011, dated 2016)

Columns and labels:
[1] = system: NCI-H-1975 cell line xenograft; assay: In vivo subcutaneous NCI-H-1975 cell line xenograft model in nude mice; design: species or system Balb/c nude mice
Excerpt: A representative protocol for the in vivo experiment is as followed to establish the subcutaneous NCI-H-1975 cell line xenograft model in nude mice and to evaluate the in vivo therapeutic efficacy of the compounds: Animals: Male Balb/c nude mice (6˜8 weeks old) were obtained from SLAC Laboratory Animal, Shanghai, China. Animals were maintained under SPF conditions in sterile filter top cages and housed on HEPA-filtered ventilated racks. Animals received sterile rodent chow and water ad libitum. Cell line: NCI-H-1975 cell line, S.c. Xenograft Models in Athymic Mice: Cells for implantation into athymic mice were harvested and pelleted by centrifugation at 1200 r/min for 5 min. Cells were washed once and resuspended in sterile PBS buffer with 5×10^6 in 200 μl. Then cells were implanted s.c. into the right scapular region of each mouse and allowed to grow to 200-300 mm^3 before the administration of compound. Preparation of the Dose Formulation: each compound was suspensioned in 0.5% CMC-Na. Randomization: When tumor volumes approach 200-300 mm^3, the mice will be randomized into 5 groups according to the tumor volume. The day will be denoted as D1 and the treatments will be started at this day. Administered: Dose will be administered with oral gavage needle once daily for number of days. Treatment of compounds administered in 0.5% CMC—Na by p.o. gavage was initiated when tumors were 200˜300 mm^3 in volume. Observations: After inoculation, the animals will be checked daily for morbidity and mortality. At the time of routine monitoring, the animals will be checked for any effects of tumor growth and treatments on normal behavior such as mobility, body weight gain/loss (body weights will be measured twice weekly or every other day), eye/hair matting and any other abnormal effect. Death and observed clinical signs will be recorded on the basis of the numbers of animals within each subset. Tumor Size Measurements: Tumor volume was determined by measurement with electronic vernier calipers every 3 days and tumor volume was calculated as the product of its length×width^2×0.5. Effect studies: Tumor volume was expressed on indicated days as the mean tumor volume±SD. Percentage (%) inhibition values were measured for drug-treated mice compared with vehicle-treated mice and are calculated as follows: Tumor growth inhibition(TGI, %)=100−[MTV treated/MTV control]×100. Significant differences between the treated versus the control groups (p<0.05) were determined using t test. At study endpoint, after blood collection, mice were practicsed euthanasia by cervical dislocation, the tumor tissue was collected first, then abdominal cavity was cut open, liver and spleen were excised, then weight after the gallblader was removed respectively. Organ weight and Organ/body weight ratios between the treated versus the control groups were compared. Ratios was calculated as follows: Ratios=Organ weight/(body weight-tumor weight). Both organ weight and Organ/body weight ratios were also expressed as mean±SD, and significant differences between the treated versus the control groups (p<0.05) were determined using t test.
The following Table D lists compounds representative of the invention and their activity in subcutaneous NCI-H-1975 cell line xenograft model in nude mice described above. Compound 11 and Dacomitinib were dosed at 15 mg/kg by oral gavage once daily for number of days. Tumor growth inhibition (TGI, %) was calculated.

[2] = system: SK-Br-3 Cell line; assay: Cell proliferation assay (MTT), SK-Br-3; type: cell-based; conditions: Homo sapiens, 72 hours treatment
Protocol: (§1) A representative number of compounds were assayed against different cancer cell lines such as NCI-H-1975 or A431 using the cell proliferation assays:
(§2) Cell Proliferation Assays: • 1. 5×10^3 cells per well in 100 μl of medium were seeded in 96-well plate, here the medium contained 5% FBS • 2. 24 hours later, 100 μl fresh medium was added with various concentrations of compounds into each well, while the medium here was free of FBS • 3. After the cells were treated with compounds for 72 hours, 20 μl MTT (5 mg/ml) was added into each well, and then the assay plate was incubated at 37° C. for 4 more hours. • 4. The assay plate was centrifuged at 800 g for 10 min. The medium was aspirated, 150 μl DMSO was added into each well. The plate was gently shaked for 10 min. • 5. The absorbance at 570 nm was measured on the plate reader. • 6. IR %=(WC−WT)/WC*100%.

[3] = system: A431 Cell line; assay: Cell proliferation assay (MTT), A431; type: cell-based; conditions: Homo sapiens, A-431, 72 hours treatment
Protocol: as §1, §2

[4] = system: TA1535 and TA1537; assay: Ames Assay, overall mutagenic potential; conditions: TA1535 and TA1537, with S9 mixture, 3.3-66.6 μM
Protocol: (§3) A representative number of compounds were tested in Ames Assay for assess the mutagenic potential.
(§4) Preparations of culture media/plates and reagents: 0.5 mmol L-histidine-0.5 mmol/L biotin solution; 20% glucose solution; nutrient broth; KCl salt solution (1.65 M KCl+0.4 M MgCl2); 0.2 M phosphate buffer (pH 7.4); co-factors (NADP; glucose 6-phosphate) for S9 mixture; top agar medium; minimal agar medium (Vogel-Bonner medium E); bottom agar medium.
(§5) Preparation of the enriched culture: Take nutrient broth 5 mL, added it to sterile tubes with the cryopreserved strain culture TA1535 and TA1537. After inoculation in nutrient broth, the cultures were kept at 37° C. with oscillation of 100 times/min for 10 hours. The strain cultures should have about 1˜2×10^9 viable cells per milliliters.
(§6) Preparation of 10 ml S9 mixture: Co-factor mixture 9 mL by glucose 6-phosphate 42.3 mg, […] 14.2 mg, 6-phosphate dehydrogenase (3 unit/μl) 10 μl plus riboflavin (9.6 mg dissolved in 700 μL water), and then mixed with 1 ml of the induced rat S9.
Plate incorporation method: In the experiment, place 2 ml of the top agar medium containing 0.5 mmol/L histidine-0.5 mmol/L biotin into the test tubes kept in 45° C. water bath. […]

[5] = system: TA1535; assay: Ames Assay, plate incorporation, strain TA1535; conditions: with S9 mixture
Protocol: as §3, §4, §5, §6
(§7) Plate incorporation method: In the experiment, place 2 ml of the top agar medium containing 0.5 mmol/L histidine-0.5 mmol/L biotin into the test tubes kept in 45° C. water bath. Into a 1.5 ml sterile Eppendorf tube, it was added 0.1 ml of the bacterial strain in the enriched broth, 0.1 ml of the test compound solution and 0.5 ml of the S9 mixture, thoroughly mixed and incubated for 30 minutes at 37° C. with shaker speed at 150 rpm/min. The liquid mixture in the Eppendorf tube was added to the top agar medium. After mixing it was poured rapidly into the plates with bottom agar plate, turning the plates to allow uniform distribution. Initially placed horizontally for condensation and then placed invertly for 48 hours at 37° C. Count and record the number of revertant colonies per dish.
(§8) Experiment controls: In addition to the set of doses (3.3, 8.3, 33.3 and 66.6 μM) for the test compounds, here are the controls: blank control, sterile control, solvent control, positive mutagen control (2-aminoanthracene at 10 μg/dish).

[6] = system: TA1537; assay: Ames Assay, plate incorporation, strain TA1537; conditions: with S9 mixture
Protocol: as §3, §4, §5, §6, §7, §8

[7] = target: EGFR(T790M/L858R) (Homo sapiens (Human), UniProt P00533, L858R/T790M); assay: In vitro EGFR(T790M/L858R) kinase activity inhibition assay (Kinase-Glo Plus luminescence); type: biochemical; conditions: 10 μM ATP, poly(Glu,Tyr) substrate
EGFR(T790M/L858R), sequence (P00533 25-1210 T790M/L858R): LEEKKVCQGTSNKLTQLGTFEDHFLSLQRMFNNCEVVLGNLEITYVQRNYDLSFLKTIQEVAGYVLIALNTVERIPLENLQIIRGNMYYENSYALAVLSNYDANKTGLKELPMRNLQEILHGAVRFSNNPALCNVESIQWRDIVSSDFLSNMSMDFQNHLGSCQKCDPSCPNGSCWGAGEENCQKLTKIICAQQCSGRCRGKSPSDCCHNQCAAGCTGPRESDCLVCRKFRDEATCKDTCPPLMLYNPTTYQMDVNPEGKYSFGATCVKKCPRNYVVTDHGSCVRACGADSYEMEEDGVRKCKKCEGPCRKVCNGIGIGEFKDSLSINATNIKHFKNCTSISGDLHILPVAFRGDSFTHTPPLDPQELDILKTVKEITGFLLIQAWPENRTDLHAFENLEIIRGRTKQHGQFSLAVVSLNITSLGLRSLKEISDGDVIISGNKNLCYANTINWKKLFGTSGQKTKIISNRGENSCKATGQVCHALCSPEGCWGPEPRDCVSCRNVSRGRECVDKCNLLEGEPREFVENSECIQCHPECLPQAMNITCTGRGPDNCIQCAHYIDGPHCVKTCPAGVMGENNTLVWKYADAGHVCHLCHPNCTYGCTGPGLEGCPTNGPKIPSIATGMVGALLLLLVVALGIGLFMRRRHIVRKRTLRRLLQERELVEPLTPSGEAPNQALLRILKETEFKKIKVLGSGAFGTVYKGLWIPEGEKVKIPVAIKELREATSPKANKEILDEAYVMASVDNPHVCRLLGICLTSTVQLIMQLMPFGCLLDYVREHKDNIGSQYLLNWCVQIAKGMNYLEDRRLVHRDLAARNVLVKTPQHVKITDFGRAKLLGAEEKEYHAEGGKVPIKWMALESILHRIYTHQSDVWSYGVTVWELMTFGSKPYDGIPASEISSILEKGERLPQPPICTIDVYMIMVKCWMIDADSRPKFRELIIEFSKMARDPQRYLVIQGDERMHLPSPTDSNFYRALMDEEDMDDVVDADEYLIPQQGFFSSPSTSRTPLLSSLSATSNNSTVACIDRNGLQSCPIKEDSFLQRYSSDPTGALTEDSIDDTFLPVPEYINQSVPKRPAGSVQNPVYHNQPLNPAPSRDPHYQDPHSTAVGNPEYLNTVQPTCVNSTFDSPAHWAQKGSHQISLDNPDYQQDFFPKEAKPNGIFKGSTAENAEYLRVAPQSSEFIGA
Protocol: (§9) • 1. […] It measures kinase activity by quantitating the amount of ATP remaining in solution following a kinase reaction. The luminescent signal from the assay is correlated with the amount of ATP present and is inversely correlated with the amount of kinase activity. […] The luminescence data were analyzed using the computer software, Graphpad Prism. […] The values of % activity versus a series of compound concentrations were then plotted using non-linear regression analysis of Sigmoidal dose-response curve generated with the equation Y=B+(T−B)/1+10^((LogEC50−X)×Hill Slope), where Y=percent activity, B=minimum percent activity, T=maximum percent activity, X=logarithm of compound and Hill Slope=slope factor or Hill coefficient. The IC50 value was determined by the concentration causing a half-maximal percent activity.

[8] = target: EGFR (Homo sapiens (Human), UniProt P00533); assay: In vitro EGFR kinase activity inhibition assay (Kinase-Glo Plus luminescence); type: biochemical; conditions: 10 μM ATP, poly(Glu,Tyr) substrate
EGFR, sequence (P00533 25-1210): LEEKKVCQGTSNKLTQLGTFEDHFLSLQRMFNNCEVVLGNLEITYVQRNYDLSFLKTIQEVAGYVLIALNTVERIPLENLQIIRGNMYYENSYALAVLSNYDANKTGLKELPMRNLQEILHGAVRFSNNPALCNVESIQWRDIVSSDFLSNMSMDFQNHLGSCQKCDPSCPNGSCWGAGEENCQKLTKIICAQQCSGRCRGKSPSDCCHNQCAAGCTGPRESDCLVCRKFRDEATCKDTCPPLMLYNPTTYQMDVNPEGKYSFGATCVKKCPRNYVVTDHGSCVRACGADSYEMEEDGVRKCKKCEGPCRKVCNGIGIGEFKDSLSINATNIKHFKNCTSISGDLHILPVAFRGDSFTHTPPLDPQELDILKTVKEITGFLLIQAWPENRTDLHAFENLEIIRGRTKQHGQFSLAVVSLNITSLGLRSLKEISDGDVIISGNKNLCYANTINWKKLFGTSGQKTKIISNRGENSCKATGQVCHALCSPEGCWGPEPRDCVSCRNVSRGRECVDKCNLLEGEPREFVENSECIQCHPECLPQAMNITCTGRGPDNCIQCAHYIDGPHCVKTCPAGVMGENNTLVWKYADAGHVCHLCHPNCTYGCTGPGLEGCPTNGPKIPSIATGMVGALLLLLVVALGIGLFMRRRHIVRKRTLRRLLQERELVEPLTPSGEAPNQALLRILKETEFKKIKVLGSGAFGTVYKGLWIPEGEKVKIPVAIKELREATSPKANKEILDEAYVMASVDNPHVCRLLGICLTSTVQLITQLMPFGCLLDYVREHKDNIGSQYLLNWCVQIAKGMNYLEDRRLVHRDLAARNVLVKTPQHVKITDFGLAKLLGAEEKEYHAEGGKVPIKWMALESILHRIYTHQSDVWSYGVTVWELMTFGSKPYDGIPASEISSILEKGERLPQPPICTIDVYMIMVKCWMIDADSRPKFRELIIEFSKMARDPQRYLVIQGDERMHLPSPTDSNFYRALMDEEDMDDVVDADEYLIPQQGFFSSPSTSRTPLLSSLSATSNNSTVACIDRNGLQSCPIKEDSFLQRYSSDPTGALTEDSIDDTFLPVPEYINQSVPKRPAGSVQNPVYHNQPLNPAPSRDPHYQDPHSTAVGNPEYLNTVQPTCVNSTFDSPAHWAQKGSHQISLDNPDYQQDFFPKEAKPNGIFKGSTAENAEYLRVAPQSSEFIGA
Protocol: as §9

[9] = Day 3, 15 mg/kg oral gavage once daily
[10] = Day 7, 15 mg/kg oral gavage once daily

Structure (SMILES) | Tumor growth inhibition (TGI, %) [1, 9] [%] | Tumor growth inhibition (TGI, %) [1, 10] [%] | IC50 [2] [nM] | IC50 [3] [nM] | Ames Assay result (mutagenic potential) [4] | TA1535 Colony number ([5]; 3.33 uM) | TA1535 Colony number ([5]; 8.33 uM) | TA1535 Colony number ([5]; 33.3 uM) | TA1535 Colony number ([5]; 66.6 uM) | Tumor growth inhibition compared with Dacomitinib ([1]; 15 mg/kg oral gavage once daily) | TA1537 Colony number ([6]; 3.33 uM) | TA1537 Colony number ([6]; 8.33 uM) | TA1537 Colony number ([6]; 33.3 uM) | TA1537 Colony number ([6]; 66.6 uM) | IC50 [7] [nM] | IC50 [8] [nM] | TA1535 Colony number ([5]; 17.27 uM (10 μg/dish)) | TA1537 Colony number ([6]; 17.27 uM (10 μg/dish))
COc1cc2ncnc(Nc3ccc(F)c(Cl)c3)c2cc1NC(=O)/C=C/CN1CCCCC1 [Dacomitinib, reference compound] | 19.86 | 75.36 | 225 | 19500 |  |  |  |  |  |  |  |  |  |  |  |  |  | 
C#Cc1cccc(Nc2ncnc3cc(OCC)c(NC(=O)/C=C/CN4CCCCC4)cc23)c1 [Compound 11, (E)-N-(7-ethoxy-4-((3-ethynylphenyl)amino)quinazolin-6-yl)-4-(piperidin-1-yl)but-2-enamide] | 30.11 | 83.25 | 85.2 | 2950 | negative | 10 | 13 | 18 | 12 | significant better tumor growth inhibition compared with Dacomitinib | 14 | 12 | 23 | 22 | 22 | 1.7 |  | 
C#Cc1cccc(Nc2ncnc3cc(OC)c(NC(=O)/C=C/CN4CCCCC4)cc23)c1 [Compound 12, (E)-N-(4-((3-ethynylphenyl)amino)-7-methoxyquinazolin-6-yl)-4-(piperidin-1-yl)but-2-enamide] |  |  | 116 | 4900 | positive | 17 | 9 | 17 | 9 |  | 8 | 22 | 47 | 66 | < 100 | < 10 |  | 
Nc1ccc2cc3ccccc3cc2c1 [2-aminoanthracene, reference compound] |  |  |  |  |  |  |  |  |  |  |  |  |  |  |  |  | 205 | 260
